Test results taken from patent US20240091218A1, “METHODS OF TREATING PROSTATE CANCER USING EXICORILANT AND ENZALUTAMIDE” (Corcept Therapeutics Incorporated, priority 2022, published 2024).
“And” between values parts separate entries of the source, which are not always exact repeats. Equal entries are not always repeated. “Also recorded” adds a separate entry of the source. Where two headings read alike, the source gives them in different places.

What was measured:
[1] = Text: The present study was an investigation of the safety and efficacy of exicorilant when administered in combination with enzalutamide in the treatment of patients suffering from metastatic castration-resistant prostate cancer (mCRPC). […] Patients with histologically confirmed prostate cancer, who had received at least two prior regimens of cytotoxic chemotherapy, were eligible for this study.
Patients in Segment 1 of the study received exicorilant twice daily under fasted conditions. This segment of the study was performed with a standard ‘3+3’ design, including one cohort with an enzalutamide alone lead-in. Enzalutamide was administered once daily.
Patients in Segment 2 of the study received exicorilant once daily under fed conditions. This segment of the study was a double-blind study, in which patients were randomized 3:1 to exicorilant titration (starting at 240 mg, titrated to 280 mg followed by 320 mg every 2 weeks as tolerated starting Cycle 1 Day 16) or to stay on exicorilant 240 mg+placebo. Enzalutamide was administered once daily.
Treatment emergent adverse events (TEAEs) and dose-limiting toxicity events (DLTs) were evaluated for the patients in Segment 2.
Dose-limiting toxicities (DLTs) were recorded from first dose of exicorilant through Cycle 3 and were defined as considered possibly or probably related to study drug by the investigator.

cortisol, ACTH = experiment: serum cortisol, ACTH and 24-h urinary free cortisol in patients; type: in vivo, human; details: for serum cortisol and ACTH levels: patients receiving exicorilant and enzalutamide
Method: Data from Segment 2 subjects whose exicorilant doses were escalated to the doses indicated on the horizontal axis. The 24-h UFC reference range was 10-100 μg/day. The 24-h UFC value for C1D1 (cycle 1, day 1) indicates the initial 24-h UFC levels.
Consistent with prior studies of exicorilant and other SGRMs, morning serum cortisol and ACTH levels were not affected in the safety population or patients who escalated to 320 mg exicorilant. […] The grey band indicates the baseline mean±SD. End of treatment: n=9; cycle 9 day 1: n=3; cycle 6 day 1: n=8; cycle 3 day 1: n=14; cycle 2 day 1: n=13; baseline: n=20.

[2] = test system: metastatic castration-resistant prostate cancer (mCRPC)
Method: Patients received either exicorilant 180 mg twice daily (BID)+enzalutamide 160 mg once daily (QD), or exicorilant 140 mg BID+enzalutamide 160 mg QD with a 28-day enzalutamide lead-in, or exicorilant 140 mg BID+enzalutamide 160 mg QD without an enzalutamide lead-in. Segment 2 enrolled patients who were on a stable dose of enzalutamide with rising PSA (25% increase over nadir and an absolute value >1 ng/mL) and evaluated QD dosing of exicorilant in a double-blind design. All segment 2 patients received exicorilant 240 mg QD+enzalutamide and were randomized 3:1 to titrate to exicorilant 280 mg or 320 mg or to receive placebo.
Segment 2 of the study was a double-blind, placebo-controlled study of patients with rising PSA; exicorilant was administered once-daily, at a dose that was phased-in (titrated in these patients from 240 mg/day, to 280 mg/ day, to 320 mg/day). […] Twenty five patients were enrolled and randomized in a ratio of 3:1 to arm A or to arm B. Exicorilant was administered to the patients once per day, with food; enzalutamide was administered at the dose that was currently tolerated and stable for each patient. Pharmacokinetic assessments of both exicorilant and enzalutamide were made on cycle 1, day 15 (C1D15), and two weeks after each dose escalation; pharmacokinetic assessments of exicorilant were made after each dose reduction (if any). Pharmacodynamic (PD) assessments were made on cycle 1, day 1 (C1D1), cycle 1, day 15 (C1D15), and two weeks after each dose escalation every three cycles from cycle 3, and upon exicorilant discontinuation or disease progression.
PSADT was calculated prior to the first dose of exicorilant (patients on enzalutamide alone), and after C1D1, C2D1, and C3D1 (where “C1D1” stands for cycle 1, day 1 of the combined treatment; “C2D1” stands for cycle 2, day 1 of the combined treatment; and “C3D1” stands for cycle 3, day 1 of the combined treatment).
The median duration of exposure to exicorilant was 9.7 weeks (range: 2-61). In the results shown in FIG. 8A, tumor response was assessed by Prostate Cancer Clinical Trials Working Group 3 (PCWG3) criteria, incorporating modified “Response Evaluation Criteria in Solid Tumors v1.1” (mRECIST v1.1) criteria. Imaging-based PFS was assessed by mRECIST v1.1, progression on bone lesions per PCWG3, or death.

[3] = test system: 22Rv1 prostate cancer xenografts; experiment: mouse 22Rv1 prostate cancer xenografts; type: in vivo; details: 21 days
Text: Left: N=10 mice/group. Castration performed 5 days after inoculation with 22Rv1 tumor cells; exicorilant treatment initiated on day 6 for 21 days. Right: N=10 mice/group. Castration performed 3 days before implantation of 22Rv1 tumor cells; exicorilant treatment initiated on day 7 for 21 days.

human GR [4] = molecular target: T1, human GR (Homo sapiens, UniProt P04150); experiment: human GR binding
T1 sequence (P04150 1-777): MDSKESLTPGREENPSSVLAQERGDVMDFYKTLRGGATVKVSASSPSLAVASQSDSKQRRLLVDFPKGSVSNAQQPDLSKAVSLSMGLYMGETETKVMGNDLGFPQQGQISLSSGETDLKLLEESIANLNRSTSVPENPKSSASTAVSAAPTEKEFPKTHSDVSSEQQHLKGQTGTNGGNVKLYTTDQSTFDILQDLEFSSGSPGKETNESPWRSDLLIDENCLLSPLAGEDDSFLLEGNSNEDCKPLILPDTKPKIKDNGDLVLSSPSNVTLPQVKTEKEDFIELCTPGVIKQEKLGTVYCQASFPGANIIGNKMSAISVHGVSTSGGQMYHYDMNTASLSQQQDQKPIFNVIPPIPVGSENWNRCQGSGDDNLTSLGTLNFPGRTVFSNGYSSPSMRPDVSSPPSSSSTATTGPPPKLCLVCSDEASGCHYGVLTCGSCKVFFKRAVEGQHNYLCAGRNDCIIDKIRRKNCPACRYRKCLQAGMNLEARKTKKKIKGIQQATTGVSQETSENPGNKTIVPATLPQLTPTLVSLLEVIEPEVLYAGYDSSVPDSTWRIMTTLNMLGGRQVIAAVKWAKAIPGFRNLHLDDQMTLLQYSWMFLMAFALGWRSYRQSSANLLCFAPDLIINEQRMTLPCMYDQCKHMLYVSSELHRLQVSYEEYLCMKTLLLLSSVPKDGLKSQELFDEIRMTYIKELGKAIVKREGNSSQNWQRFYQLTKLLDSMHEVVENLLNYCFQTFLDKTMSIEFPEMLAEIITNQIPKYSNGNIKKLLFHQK

GR target genes (CDKN1C) = experiment: GR target gene expression in blood (NanoString)
ER and AR = experiment: selectivity for GR relative to ER and AR
human GR [5] = molecular target: T1, human GR; experiment: human GR functional assays; type: cell-based
[6] = exicorilant pharmacokinetics in Segment 2 patients; type: in vivo, human; details: for AUC(0-t) / Cmax: male, human, in vivo, oral, once daily with food; for AUC(0-t): read-out: AUC0-24, geometric mean; for Cmax: read-out: Cmax, geometric mean
Text: Exicorilant pharmacokinetics observed in the patients in Segment 2 are illustrated in FIG. 4A (data are shown as geometric mean plus geometric standard deviation), and tabulated in TABLE 6.

[7] = male, human, in vivo
[8] = Segment 2 (n = 25), PCWG3 criteria
[9] = Arm A, EXI 240 mg + ENZA 160 mg (15 PK observations)
[10] = Arm A, EXI 280 mg + ENZA 160 mg (8 PK observations)
[11] = Arm A, EXI 320 mg + ENZA 160 mg (8 PK observations)
[12] = Arm B, EXI 240 mg + ENZA 160 mg (14 PK observations, combined)

CNC(=O)c1ccc(N2C(=S)N(c3ccc(C#N)c(C(F)(F)F)c3)C(=O)C2(C)C)cc1F.Cn1ncc(S(=O)(=O)N2CC[C@H]3Cc4c(cnn4-c4ccc(F)cc4)C[C@]3(C(=O)c3cc(C(F)(F)F)ccn3)C2)n1 [exicorilant+enzalutamide]
SAEs with a fatal outcome ([1]; Segment 2): No SAEs with a fatal outcome
grade 5 TEAEs ([1]; all patients): no grade 5 adverse events; also recorded: no grade 5 TEAEs
grade 4 TEAEs, number ([1]; human, in vivo): one
tolerated phase 2 regimen, exicorilant dose ([1]; once-daily, combined with 160 mg enzalutamide once daily, based on DLTs): 240 mg
dose-limiting events ([1]; segment 1, exicorilant BID fasted): Dose-limiting fatigue, musculoskeletal pain, and pancreatitis
serum cortisol and ACTH levels (cortisol, ACTH): neither ACTH nor cortisol levels are significantly elevated
PSA reductions at any time during treatment, % of patients ([2]; Segment 2): 56%
PSA reductions at any time during treatment, number of patients ([2]; Segment 2): 14
patients with greater than 25% increase in PSADT ([2]; Segment 2): Two
PSA response (≥50% PSA reduction from baseline), number of patients ([2]; Segment 2 (n = 25)): 1
reductions in PSA as compared to baseline, % of patients ([2]; Segment 2 (n = 25)): 15% and 16%
reductions in PSA as compared to baseline, number of patients ([2]; Segment 2 (n = 25)): 4
radiographic / imaging-based tumor responses ([2]; Segment 2 (n = 25), PCWG3/mRECIST v1.1): no radiographic responses; also recorded: no imaging-based tumor responses
best overall response of stable disease, % of patients [2, 8]: 72%
best overall response of stable disease, number of patients [2, 8]: 18
PSADT increased, % of patients ([2]; Segment 2, After C1D1 (n = 25)): 52%
PSADT increased, number of patients ([2]; Segment 2, After C1D1 (n = 25)): 13
PSADT increased, % of patients ([2]; Segment 2, After C2D1 (n = 23)): 69.6%
PSADT increased, number of patients ([2]; Segment 2, After C2D1 (n = 23)): 16
PSADT increased, % of patients ([2]; Segment 2, After C3D1 (n = 13)): 61.4%
PSADT increased, number of patients ([2]; Segment 2, After C3D1 (n = 13)): 8
PSADT increase, % of patients ([2]; Segment 2 patients who received more than two cycles of the combined treatment): 61.5%
PSA declines by the second on-treatment PSA assessment, number of patients ([2]; of 14 patients with PSA reductions): 11
PSA reduction from baseline in one patient ([2]; patient who received 320 mg exicorilant with 160 mg enzalutamide): 71.1%
PSA reduction from baseline in one patient ([2]; patient with 240 mg exicorilant + 160 mg enzalutamide): 36.7%
increases in PSA doubling time, % of patients ([2]; patients dosed daily under fed conditions): more than 50%
tumor growth ([3]; exicorilant with enzalutamide vs enzalutamide alone, castrated mice, N=10/group): significantly reduced tumor growth

Cn1ncc(S(=O)(=O)N2CC[C@H]3Cc4c(cnn4-c4ccc(F)cc4)C[C@]3(C(=O)c3cc(C(F)(F)F)ccn3)C2)n1 [exicorilant, ((4aR,8aS)-1-(4-fluorophenyl)-6-((2-methyl-2H-1,2,3-triazol-4-yl)sulfonyl)-4,4a,5,6,7,8,8a,9-octahydro-1H-pyrazolo[3,4-g]isoquinolin-4a-yl)(4-(trifluoromethyl)pyridin-2-yl)methanone]
most frequently reported TEAE assessed as related to exicorilant ([1]; human, in vivo): fatigue
Exicorilant-related TEAE ALP increased, % of patients ([1]; male, human, in vivo): (12.0%)
Exicorilant-related TEAE ALP increased, number of patients ([1]; male, human, in vivo): 3
Exicorilant-related TEAE Anemia, % of patients ([1]; male, human, in vivo): (16.0%)
Exicorilant-related TEAE Anemia, number of patients ([1]; male, human, in vivo): 4
Exicorilant-related TEAE Constipation, % of patients ([1]; male, human, in vivo): (28.0%)
Exicorilant-related TEAE Constipation, number of patients ([1]; male, human, in vivo): 7
Exicorilant-related TEAE Decreased appetite, % of patients ([1]; male, human, in vivo): (24.0%)
Exicorilant-related TEAE Decreased appetite, number of patients ([1]; male, human, in vivo): 6
Exicorilant-related TEAE Lymphocyte count decreased, % of patients ([1]; male, human, in vivo): (12.0%)
Exicorilant-related TEAE Lymphocyte count decreased, number of patients ([1]; male, human, in vivo): 3
Exicorilant-related TEAE Nausea, % of patients ([1]; male, human, in vivo): (20.0%)
Exicorilant-related TEAE Nausea, number of patients ([1]; male, human, in vivo): 5
Exicorilant-related TEAE Pain in extremity, % of patients ([1]; male, human, in vivo): (20.0%)
Exicorilant-related TEAE Pain in extremity, number of patients ([1]; male, human, in vivo): 5
Patients with any TEAE related to exicorilant, % ([1]; male, human, in vivo): (92.0%)
Patients with any TEAE related to exicorilant, number ([1]; male, human, in vivo): 23
SAEs assessed as being related to exicorilant, number ([1]; male, human, in vivo): 1
exicorilant-related AE back pain, % of patients ([1]; male, human, in vivo): 35%
exicorilant-related AE decreased appetite, % of patients ([1]; male, human, in vivo): 27%
exicorilant-related AE fatigue, % of patients ([1]; male, human, in vivo): 57%
exicorilant-related AE pain in extremity, % of patients ([1]; male, human, in vivo): 22%
Ki (human GR [4]): < 1 nM
pharmacodynamic effects (gene expression), with food vs fasting (GR target genes (CDKN1C); 240-320 mg QD with food vs BID fasting (Segment 1)): larger when exicorilant was administered with food; also recorded: greater than those observed in fasted patients
modulation of GR target genes (GR target genes (CDKN1C); patients receiving exicorilant): confirmed modulation of GR target genes; also recorded: Modulation of GR target genes was observed
24-h urinary free cortisol (UFC) levels (cortisol, ACTH; Segment 2 subjects with escalated exicorilant doses): did not increase UFC levels
serum cortisol and ACTH levels (cortisol, ACTH): did not affect cortisol or ACTH levels; also recorded: not significantly altered; also recorded: no significant alterations
selectivity for GR (ER and AR): selectivity for GR relative to ER and AR
tumor growth ([3]; exicorilant with castration vs castration alone, N=10 mice/group): significantly reduced tumor growth
Ki (human GR [5]): < 15 nM
mode of action at GR (human GR [5]): competitive, reversible, full antagonist of GR
exicorilant exposures across arms and dose levels ([6]; Segment 2, 240-320 mg): largely overlapping across arms and dose levels
AUC(0-t) [6, 9]: 366 µg·h/mL
Cmax [6, 9]: 17700 ng/mL
AUC(0-t) [6, 10]: 401 µg·h/mL
Cmax [6, 10]: 19600 ng/mL
AUC(0-t) [6, 11]: 428 µg·h/mL
Cmax [6, 11]: 19600 ng/mL
AUC(0-t) [6, 12]: 375 µg·h/mL
Cmax [6, 12]: 17200 ng/mL

CNC(=O)c1ccc(N2C(=S)N(c3ccc(C#N)c(C(F)(F)F)c3)C(=O)C2(C)C)cc1F [enzalutamide]
CDKN1C expression (GR target genes (CDKN1C); enzalutamide alone, Segment 1 lead-in): not affected
enzalutamide exposures in combination with exicorilant [7]: consistent with historical data for enzalutamide 160 mg alone
